Results: US8796241B2, “Therapy of tumors and infectious agents deficient in methylthioadenosine phosphorylase” (priority 2007, dated 2014)

Tests used:
MTAP(+) HF cells = experiment: Coulter counts of HF cell cultures; type: cell-based, human
Method: For adherent cell types (e.g., HF, A549, MCF7) cells were plated in 60 mm -diameter plastic tissue culture dishes and incubated at 37° C. in a humidified 5% CO2 atmosphere, in Dulbecco's Modified Eagle's Medium (DME) with 10% fetal bovine serum (FBS). At the start of an experiment, medium was replaced with DME and 10% dialyzed FBS.
(§1) For adherent cell types, cell numbers were determined periodically by releasing cells with trypsin (dead cells that were no longer adherent were removed by two prior rinses of the culture dish) and placing a portion of the resulting cell suspension in a Coulter counter. For cell types that grow in suspension, portions of the culture were counted directly, without trypsin treatment. Coulter counts of cells from each dish were done twice, and almost all experiments were done in duplicate. In the presentation of results, raw data for Coulter counts is given in some cases, while in others, counts have been rounded off to two to three significant figures. (Background Coulter counts—i.e., counts of diluent alone—were insignificant.)
Cell cultures were treated with MeP, with or without 5′-dAdo or MTA, for 4 days. The cell cultures were then changed to fresh medium, with the addition of 30 μM Ade to inhibit further action of the analog. Two days later cultures were trypsinized and a portion of the suspension was counted.
• A. F-Ade was added to cultures of HF cells, with varying amounts of 5′-dAdo. After 3 days, cell numbers were counted. • Initial cell count: 1,100 • After three days:
• Cultures of human fibroblasts were treated with DAP, 5′-dAdo, MTA, adenine, or MTX. Thymidine (15 μM) was added to all cultures. • Initial count was: 1807 • Counts, as raw data, after 3 days of incubation, are shown below: […]
• Human fibroblasts in culture were treated with 6-thioguanine (TG), 2,6-diaminopurine (DAP), or 5′-dAdo for 3 days. After trypsinization, cell numbers were counted. • Initial cell number: 296,000

MTAP(−) A549 cells = experiment: Clonogenic assay of A549 cells; type: cell-based, human
Method: Cell viability of adherent cell types was measured by clonogenic assay as follows: after releasing cells with trypsin and removing a portion of the cell suspension for Coulter counting, the remainder of the cell suspension was plated in serial dilutions in growth medium, without drugs. After a period sufficient for clones to reach a size visible by eye (usually 2 to 3 weeks), clones were stained with crystal violet in a saline/methanol solution. Dishes that had fewer than 100 clones were deemed suitable for counting. From these counts and from the dilution factors, the approximate number of viable cells, in the parent treatment dishes, was calculated. […] In clonogenic assays, clone size was often variable, especially after treatment with toxic drugs. Moreover, many of the very small clones may have arisen from cells detached during the weeks of incubation. […] Cloning efficiency for healthy, growing A549 cells was about 50%; for HF cells, efficiency was quite variable, ranging from 25 to 75% (perhaps because the HF cell stock varied, from experiment to experiment, in passage number).
A549 cells were incubated for 4 days with additions shown below, and viable cells measured by clonogenic assay. (Results shown are approximate; see Methods) Cell count in dish at start: 40,000
• MTAP(−) A549 lung tumor cell cultures were treated with F-Ade, with or without MTA, 5′-dAdo, or adenine (Ade), for three days. Coulter counts of cells, and viable cells as determined by clonogenic assay, are shown below: • Initial cell number: 10,340*
• A549 cell cultures were treated with DAP, with or without 5′-dAdo or adenine, for three days. After trypsinization, one-fourth of the cell suspension was counted, and raw data is shown below, with duplicate counts for each sample. The cell suspension was also serially diluted for clonogenic assay. • Counts at start of experiment: Dish one: 36,480; 39,160; Dish two: 52,680; 51,360. • Initial viable cells by clonogenic assay: 180,000.
• Cell cultures were treated with MTX or alanosine for one day. DAP was then added and 3 days later, cells were trypsinized and serially diluted for clonogenic assay. Results are shown below: • Initial viable cells: 146,000
• A549 cells were plated, and after they had adhered to the substrate, medium was changed to methionine-free medium with 10% dialyzed serum. L-ethionine (Eth) and MTA were added, and after 4 days, cell cultures were trypsinized and serially diluted for clonogenic assay. • Initial number of viable cells: 160,000*
• A549 cultures were treated with 6-thioguanine (TG) or 2,6,diaminopurine (DAP), or both, for 3 days. • Initial viable cells: 275,000 • After 3 days: […]

MTAP(−) HL-60 cells = experiment: Coulter counts of HL-60 suspension cultures; type: cell-based; details: Example 13
Method: (§2) For cell types that grow in suspension (e.g., ML-1, HL-60, K-562) medium was RPMI-1640 with 10% FBS (undialyzed).
as §1
(§3) For cells that grow in suspension, the effect of treatments was assessed solely by changes in Coulter count.
• HL-60 cells were grown in RPMI 1640 with 10% FBS. 5′-dAdo, adenine, or neither were added, and after 3 hours, 5-fluorouracil (FU) was added to selected dishes. Six days later, cell numbers were assessed in a Coulter counter. • Initial cell number/ml: 8,160

MTAP(+) ML-1 cells = experiment: Coulter counts of ML-1 suspension cultures; type: cell-based
Method: as §2, §1, §3
• ML-1 cells were incubated in RPMI 1640 with 10% FBS with 5′-dAdo (60 μM) for 6 hours. 5-fluorouracil (FU), 6-thioguanine (TG), or 2,6-diaminopurine (DAP) were then added, and after 2 additional days, 0.5 ml was taken for Coulter counts. Initial Coulter count/ml: 308,000

[1] = test system: MTAP-positive cells and cells lines; experiment: Applicants' tissue culture experiments on protection of MTAP-positive cells (summary statements); type: cell-based, human; mouse
mice = details: high doses; cited from earlier work

C[C@H]1O[C@@H](n2cnc3c(N)ncnc32)[C@H](O)[C@@H]1O [5′-dAdo, 5′-deoxyadenosine]
Coulter counts (MTAP(+) HF cells; 3 days, 5′-dAdo 60 μM, no F-Ade, initial count 1,100, x56 = cells/dish): 8150
protection of HF cells against MeP toxicity (MTAP(+) HF cells; Example 3): effectively protected
blocking of DAP toxicity in HF cells (MTAP(+) HF cells; Example 8): blocked
blocking of inhibition by TG and by DAP in HF cells (MTAP(+) HF cells; Example 15): blocked inhibition
protection of HF cells from the combined toxicity of TG and DAP (MTAP(+) HF cells; Example 15): protected
protection from toxicity of F-Ade (MTAP(+) HF cells; increasing concentration of 5′-dAdo): so does protection
blocking of MeP toxicity in A549 cells (MTAP(−) A549 cells; 10 μM MeP): not
blocking of DAP toxicity in A549 cells (MTAP(−) A549 cells; 100 μM DAP, Example 7): did not block
blocking of F-Ade toxicity in A549 cells (MTAP(−) A549 cells; 1 to 2 μM F-Ade): not
protection of HL-60 cells from FU toxicity (MTAP(−) HL-60 cells): not protected
Increase in cell number/ml, 60 μM 5′-dAdo (MTAP(+) ML-1 cells; 5′-dAdo 60 μM for 6 hours, then 2 days with FU 3 μM, TG 20 μM, DAP 50 μM where present, initial Coulter count/ml 308,000): 918,000 /ml
protection against growth inhibition caused by FU, TG and DAP, individually and in combination (MTAP(+) ML-1 cells; Example 14): effectively protected
protection from highly toxic doses of adenine and/or methionine competitive antagonists ([1]; HF, mouse hematopoietic progenitors, HT-29, ML-1, EJ, T-47D, ZR-75-1, MDA-MB-468): provide protection
blocking of toxicity of very high doses of 2,6-diaminopurine, 2-fluoroadenine, 6-methylpurine ([1]; normal human and mouse cells): effectively blocked
toxicity in vivo (mice): non-toxic
